Reference: ChEMBL document CHEMBL4888484, “Replenishing the malaria drug discovery pipeline: Screening and hit evaluation of the MMV Hit Generation Library 1 (HGL1) against asexual blood stage Plasmodium falciparum ,using a nano luciferase reporter read-out” (2022)

How the values were obtained:
Plasmodium falciparum [1] = experiment: Hit confirmation in dose-response curve in NF54 nanoGlo assay, at 72h; type: functional, organism-based, Erythrocyte; parameters: timepoint 72 hour; conditions: Plasmodium falciparum, NF54, Erythrocyte, 72 h
Plasmodium falciparum [2] = experiment: Hit confirmation in dose-response curve in NF54 pLDH assay, at 72h; type: functional, organism-based; parameters: timepoint 72 hour; conditions: NF54, Erythrocyte
Plasmodium falciparum [3] = experiment: Hit confirmation in dose-response curve in Dd2 pLDH assay, at 72h; type: functional, organism-based; parameters: timepoint 72 hour; conditions: Dd2, Erythrocyte
Plasmodium falciparum [4] = experiment: Hit confirmation in dose-response curve in NF54 nanoGlo assay, at 12h; type: functional, organism-based, Erythrocyte; parameters: timepoint 12 hour; conditions: Plasmodium falciparum, NF54, Erythrocyte, 12 h
[5] = Hit confirmation in dose-response curve in HepG2 cytotoxicity assay, at 72h; type: toxicity, cell-based; parameters: timepoint 72 hour; conditions: human, HepG2 cells

SMILES	IC50 (Plasmodium falciparum [1])	IC50 (Plasmodium falciparum [2])	IC50 (Plasmodium falciparum [3])	IC50 (Plasmodium falciparum [4])	IC50 at 72 h [5]
O=S(=O)(Nc1cccc2cccnc12)c1cccs1	1.82 µM	5.62 µM	3.24 µM	4.57 µM	10.7 µM
Cc1ccccc1C(=O)N(Cc1cccc(F)c1)c1ccc(CC(=O)NCCN2CCCCC2)cc1	2.57 µM	2.75 µM	4.68 µM	> 10 µM	> 10 µM
Cc1nc(C(=O)Nc2[nH]c(=O)ncc2F)c(-c2ccccc2)o1	0.00832 µM	0.0126 µM	> 10 µM	9.55 µM	> 10 µM
Cc1noc(Cl)c1CC(=O)N1CCCC(C)(C)CC1	2.29 µM	5.62 µM	4.07 µM	7.94 µM	> 10 µM
Cc1[nH]c2ncnc(NC(=O)c3cccc(-n4ccnn4)c3)c2c1C	8.13 µM	> 10 µM	> 10 µM	> 10 µM	> 10 µM
Cc1oc2ncn(CCN3CCCC3)c(=O)c2c1C(=O)Nc1ccc(C#N)cc1	2.63 µM	10.7 µM	6.46 µM	2.75 µM	> 10 µM
O=C(N[C@@H](CN1CCCC1)c1ccccc1)N1CCC(c2ccn[nH]2)CC1	3.8 µM	2.24 µM	4.9 µM	> 10 µM	> 10 µM
COc1cccc(CC(=O)N2CCc3nc(N4CCC(C)CC4)nc(Oc4ccccc4OC)c3C2)c1	3.63 µM	10 µM	4.9 µM	> 10 µM	> 10 µM
NC(=O)c1ccc(C(F)(F)F)n(C[C@H](O)c2cc(Cl)ccc2Cl)c1=O	2.63 µM	6.17 µM	3.8 µM	7.24 µM	> 10 µM
Cc1ccc(C(=O)N(Cc2cccc(F)c2)c2ccc(CC(=O)N[C@@H](C)c3ccccc3)cc2)cc1	1.66 µM	4.27 µM	3.09 µM	> 10 µM	> 10 µM
CCCOc1cccc2c(NC3CCN(CCOC)CC3)ccnc12	1.78 µM	2.24 µM	1.58 µM	3.24 µM	> 10 µM
CCCN1CCC(NCc2ccc(-c3cccc(Cl)c3Cl)o2)CC1	2.63 µM	3.55 µM	2.63 µM	7.08 µM	> 10 µM
CCN(CC)C(=O)c1cnc2snc(C)c2c1N1CCC(C(=O)Nc2c(C)cc(C)cc2C)CC1	3.24 µM	> 10 µM	> 10 µM	5.89 µM	> 10 µM
CC(C(=O)Nc1nccs1)N1CCCC(c2ccn[nH]2)C1 (stereo not given)	3.09 µM	7.24 µM	3.09 µM	> 10 µM	> 10 µM
O=C(c1ccccc1)c1cc(Cl)ccc1NC(=O)[C@H]1CC(=O)N(c2ccc(F)cc2)C1	2.24 µM	3.39 µM	4.17 µM	4.37 µM	> 10 µM
Cc1ccc(Cn2c(=O)c(C(=O)NCc3ccc4c(c3)OCO4)nn(-c3ccc(C(C)C)cc3)c2=O)cc1	2.69 µM	8.13 µM	3.39 µM	> 10 µM	> 10 µM
O=C(Nc1[nH]c(=O)ncc1F)c1coc(-c2ccccc2)n1	0.00589 µM	0.0112 µM	> 10 µM	> 10 µM	> 10 µM
CC12CN(S(=O)(=O)c3ccc4c(c3)OCCO4)C3(C(=O)OCc4ccccc4)CC1CCC23C (stereo not given)	2.82 µM	3.8 µM	3.24 µM	> 10 µM	> 10 µM

SMILES	IC50 (Plasmodium falciparum [1])	IC50 (Plasmodium falciparum [2])	IC50 (Plasmodium falciparum [3])	IC50 (Plasmodium falciparum [4])	IC50 at 72 h [5]
CCNC(=O)c1csc(COc2ccc3c(c2)[C@H](c2ccc(C)cc2)N(C(=O)CC(C)C)CC3)n1	3.55 µM	7.76 µM	4.47 µM	9.77 µM	> 10 µM
Cc1ccc(C2c3ccsc3CCN2CCC(=O)N2CCN(C(=O)Cc3cccs3)C(C)C2)cc1 (stereo not given)	8.91 µM	2.75 µM	10.5 µM	> 10 µM	> 10 µM
Cc1nsc2ncc(C(=O)N3CCC(C)CC3)c(N3CCC(C(=O)Nc4cc(F)ccc4F)CC3)c12	2.82 µM	11.5 µM	9.77 µM	6.92 µM	> 10 µM
COc1ccccc1Cn1cnc2c1c(=O)n(C1CCCCC1)c(=O)n2-c1ccccc1Cl	1.41 µM	3.98 µM	3.16 µM	> 10 µM	> 10 µM
Cc1nc2cc(NC(=O)[C@@]3(C)CCCN(C(=O)c4ccccc4)C3)ccc2o1	1.58 µM	> 10 µM	> 10 µM	0.525 µM	> 10 µM
CC[C@@]1(C)CCCN(C(=O)Cc2c(C)noc2Cl)C1	1.51 µM	4.37 µM	4.17 µM	4.07 µM	> 10 µM
Cc1ccccc1Cn1cnc2c1c(=O)n(C1CCCCC1)c(=O)n2-c1ccccc1Cl	1.74 µM	5.5 µM	4.27 µM	> 10 µM	> 10 µM
CCn1c(-c2cc(NC(=O)c3ccc4c(c3)OCO4)[nH]n2)cc2ccc(OC)cc21	> 10 µM	> 10 µM	> 10 µM	1.7 µM	> 10 µM
O=S(=O)(c1cccc(Cl)c1)N1CCc2nc(N3CCCCC3)nc(Oc3ccccc3)c2C1	1.95 µM	3.02 µM	2.75 µM	> 10 µM	> 10 µM
Cc1ccc(NC(=O)N2CCCN(c3ccc(NC(=O)c4cccs4)cc3C(=O)NCc3ccc(F)cc3)CC2)cc1	3.63 µM	7.94 µM	> 10 µM	6.92 µM	> 10 µM
COc1ccc(-n2ncc(Oc3cccc(C)c3)c(Nc3cccc(C(=O)NCc4ccc(F)cc4)c3)c2=O)cc1	3.55 µM	> 10 µM	7.59 µM	5.75 µM	> 10 µM
O=C(c1ccc2c(c1)OCO2)N1CCn2c1nc1ccccc12	1.58 µM	> 10 µM	> 10 µM	0.513 µM	> 10 µM
COc1ccccc1-n1c(=O)n(C2CCCC2)c(=O)c2c1ncn2Cc1ccccc1Cl	3.02 µM	10 µM	9.55 µM	> 10 µM	> 10 µM
O=C(Cc1ccc(N(Cc2cccc(F)c2)C(=O)c2cccc(F)c2)cc1)NCCN1CCCCC1	3.24 µM	5.25 µM	7.94 µM	> 10 µM	> 10 µM
CC[C@H](O)CN1CCC(Nc2ncnc3cc(Cl)ccc23)CC1	1.62 µM	1.82 µM	1.51 µM	2.95 µM	> 10 µM
CN(C)c1noc(CN2CCc3ccc(F)cc3C2)n1	5.01 µM	7.24 µM	> 10 µM	> 10 µM	> 10 µM
Cc1noc(NCc2ccc(Cl)cc2)n1	3.8 µM	8.13 µM	2.88 µM	> 10 µM	> 10 µM
O=C(c1ccccc1F)N(Cc1nccn1Cc1c(F)cccc1Cl)C1CC1	2.75 µM	6.92 µM	> 10 µM	1.32 µM	> 10 µM
